In ChEMBL document CHEMBL5223061, “Mechanisms and inhibitors of nicotinamide N-methyltransferase” (RSC Med Chem, 2021):

Assays:
[1] = biological target: T1, Nicotinamide N-methyltransferase (Homo sapiens) (UniProt P40261); assay: Inhibition of NNMT (unknown origin) assessed as formation of MNA at 0.5 uM using nicotinamide as substrate and SAM as cofactor by fluorescence based assay
T1 sequence (whole entry): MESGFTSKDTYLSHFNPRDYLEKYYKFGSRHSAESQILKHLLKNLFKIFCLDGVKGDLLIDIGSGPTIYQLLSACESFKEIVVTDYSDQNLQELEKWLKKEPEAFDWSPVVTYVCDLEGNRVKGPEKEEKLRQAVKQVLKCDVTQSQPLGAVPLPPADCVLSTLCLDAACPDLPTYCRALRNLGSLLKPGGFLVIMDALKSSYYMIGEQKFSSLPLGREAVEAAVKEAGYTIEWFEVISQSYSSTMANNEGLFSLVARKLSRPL

[2] = Inhibition of monkey NNMT preincubated for 30 mins followed by substrate, cofactor addition and measured after 60 mins using nicotinamide as substrate and SAM as cofactor by fluorescence enzymatic assay; design: species or system Macaca mulatta
[3] = biological target: T1, Nicotinamide N-methyltransferase (Homo sapiens); assay: Inhibition of recombinant human NNMT expressed in Escherichia coli BL21 (DE3) assessed as Kobs/[I] ratio and measured after 20 mins using nicotinamide as substrate and SAM as cofactor by MTase-Glo reagent based assay
[4] = biological target: T1, Nicotinamide N-methyltransferase (Homo sapiens); assay: Inhibition of human NNMT at 30 uM preincubated for 30 mins followed by substrate, cofactor addition and measured after 60 mins using nicotinamide as substrate and SAM as cofactor by fluorescence enzymatic assay; settings: time 90.0 min
[5] = substrate: NC(=O)c1cccnc1; assay: Binding affinity to recombinant human NNMT expressed in Escherichia coli BL21 (DE3) assessed as Km preincubated for 10 mins followed by NAM addition and measured after 10 mins by Michaelis-Menten analysis; settings: time 20.0 min
[6] = substrate: C[S+](CC[C@H](N)C(=O)[O-])C[C@H]1O[C@@H](n2cnc3c(N)ncnc32)[C@H](O)[C@@H]1O; assay: Binding affinity to recombinant human NNMT expressed in Escherichia coli BL21 (DE3) assessed as Km preincubated for 10 mins followed by SAM addition and measured after 10 mins by Michaelis-Menten analysis; settings: time 20.0 min

C=C(C)[C@@]12O[C@@]3(/C=C/C=C/CCCCC)O[C@@H]1[C@@H]1[C@@H]4O[C@]4(CO)[C@@H](O)[C@]4(O)C(=O)C(C)=C[C@H]4[C@@]1(O3)[C@H](C)[C@H]2OC(C)=O
inhibition [1]: 50%

COc1ccc(C(N)=O)cn1
IC50 [2]: 2.8 µM

Clc1ccncc1
Ratio [3]: 20 M⁻¹ min⁻¹

CNC(=O)c1ccc(OC)nc1
inhibition [4]: 20%

NC(=O)c1cnccc1Cl
Ratio [3]: 80 M⁻¹ min⁻¹

B1: Nicotinamide N-methyltransferase (Homo sapiens), P40261 (protein)
chain: T1 sequence (whole entry)
Km [5]: 199 µM | Km [6]: 8.5 µM
